{"source": "patent US20230142844A1", "about": "“USE OF 1,9-DECANEDIOL IN RETARDING UREA HYDROLYSIS” (INSTITUTION OF SOIL SCIENCE, CHINESE ACADEMY OF SCIENCES, priority 2021, published 2023)", "test_system": "urea hydrolysis in soil", "test": "Soil culture test: effect of inhibitors applied with urea on urea hydrolysis (urea nitrogen and ammonia nitrogen contents in soil)", "details": "for contents of ammonia nitrogen in soil (NH4^+-N) / contents of urea nitrogen in soil (Urea-N): flooded paddy soil, 25° C.; for inhibition of urea hydrolysis during the culture period / effect on retarding the hydrolysis efficiency of urea: result in words; for effect on retarding the hydrolysis efficiency of urea: applied with urea to flooded paddy soil", "method": "1.1 experimental soil: the type of experimental soil is paddy soil, and the texture is sandy loam soil. It is collected from 0-20 cm topsoil of experimental field in Yingtan City, Jiangxi Province (28° 15′N, 116° 55′E). It is sieved by 2 millimeters (mm), mixed, and reserved.\n1.2 test reagent: 1,9-decanediol is customized in market, and a structural formula thereof is C10H22O2. Nitrification inhibitor is dicyandiamide (DCD, a structural formula thereof is C2H4N4) is purchased from Sigma.\n1.3 experimental treatment: experimental setting as follows: urea treatment (U); nitrification inhibitor DCD +urea treatment including: DCD-20 mg/kg soil; 1,9-decanediol+urea treatment in the soil including: 1,9-D-100 mg/kg, 1,9-D-200 mg/kg, 1,9-D-500 mg/kg, and 1,9-D-1000 mg/kg. Each treatment is repeated three times. The amount of nitrogen applied is […] nitrogen per kilogram soil.\nAfter the experimental soil is weighed into 100 milliliters (mL) plastic pipe, distilled water is evenly added, and the soil water content is adjusted to 60% of the maximum field water capacity. Then the plastic pipe is sealed with sealing film and uniform holes are pricked to keep air flowing, and pre-cultured in a 25° C. incubator for three days.\nAfter the pre-culture, according to the different experimental treatments, the corresponding urea and inhibitors (1,9-decanediol and DCD) are weighed to form a mixed solution, the mixed solution is evenly applied to soil, then distilled water is added to maintain a flooded state, and cultured at 25° C. […]. The contents of urea nitrogen and ammonia nitrogen in soil are measured on the 1st, 2nd, 3rd, 5th, and 7th days of culture to evaluate the effects of different inhibitors on nitrogen transformation.", "key": {"[1]": {"details": "1,9-decanediol 100 mg/kg in soil + urea, 1 d of culture"}, "[2]": {"details": "1,9-decanediol 100 mg/kg in soil + urea, 2 d of culture"}, "[3]": {"details": "1,9-decanediol 100 mg/kg in soil + urea, 3 d of culture"}, "[4]": {"details": "1,9-decanediol 100 mg/kg in soil + urea, 5 d of culture"}, "[5]": {"details": "1,9-decanediol 100 mg/kg in soil + urea, 7 d of culture"}, "[6]": {"details": "1,9-decanediol 200 mg/kg in soil + urea, 1 d of culture"}, "[7]": {"details": "1,9-decanediol 200 mg/kg in soil + urea, 2 d of culture"}, "[8]": {"details": "1,9-decanediol 200 mg/kg in soil + urea, 5 d of culture"}, "[9]": {"details": "1,9-decanediol 200 mg/kg in soil + urea, 7 d of culture"}, "[10]": {"details": "1,9-decanediol 500 mg/kg in soil + urea, 1 d of culture"}, "[11]": {"details": "1,9-decanediol 500 mg/kg in soil + urea, 2 d of culture"}, "[12]": {"details": "1,9-decanediol 500 mg/kg in soil + urea, 3 d of culture"}, "[13]": {"details": "1,9-decanediol 500 mg/kg in soil + urea, 5 d of culture"}, "[14]": {"details": "1,9-decanediol 500 mg/kg in soil + urea, 7 d of culture"}, "[15]": {"details": "1,9-decanediol 1000 mg/kg in soil + urea, 1 d of culture"}, "[16]": {"details": "1,9-decanediol 1000 mg/kg in soil + urea, 2 d of culture"}, "[17]": {"details": "1,9-decanediol 1000 mg/kg in soil + urea, 3 d of culture"}, "[18]": {"details": "1,9-decanediol 1000 mg/kg in soil + urea, 5 d of culture"}, "[19]": {"details": "1,9-decanediol 1000 mg/kg in soil + urea, 7 d of culture"}, "[20]": {"details": "DCD 20 mg/kg soil + urea, 1 d of culture"}, "[21]": {"details": "DCD 20 mg/kg soil + urea, 2 d of culture"}, "[22]": {"details": "DCD 20 mg/kg soil + urea, 3 d of culture"}, "[23]": {"details": "DCD 20 mg/kg soil + urea, 5 d of culture"}, "[24]": {"details": "DCD 20 mg/kg soil + urea, 7 d of culture"}}, "data": [{"smiles": "CC(O)CCCCCCCCO", "note": "(stereo not drawn) [1,9-D, 1,9-decanediol]", "values": [{"measurement": "contents of ammonia nitrogen in soil (NH4^+-N)", "setting": "[1]", "value": "171.9 ± 8.1", "unit": "a"}, {"measurement": "contents of urea nitrogen in soil (Urea-N)", "setting": "[1]", "value": "10.1 ± 0.7", "unit": "c"}, {"measurement": "contents of ammonia nitrogen in soil (NH4^+-N)", "setting": "[2]", "value": "176.8 ± 1.2", "unit": "c"}, {"measurement": "contents of urea nitrogen in soil (Urea-N)", "setting": "[2]", "value": "3.7 ± 1.2", "unit": "cd"}, {"measurement": "contents of ammonia nitrogen in soil (NH4^+-N)", "setting": "[3]", "value": "197.7 ± 7.3", "unit": "ab"}, {"measurement": "contents of urea nitrogen in soil (Urea-N)", "setting": "[3]", "value": "3.4 ± 0.5", "unit": "days"}, {"measurement": "contents of ammonia nitrogen in soil (NH4^+-N)", "setting": "[4]", "value": "187 ± 8.5", "unit": "mg/kg"}, {"measurement": "contents of urea nitrogen in soil (Urea-N)", "setting": "[4]", "value": "3.3 ± 0.2", "unit": "c"}, {"measurement": "contents of ammonia nitrogen in soil (NH4^+-N)", "setting": "[5]", "value": "221.7 ± 2.4", "unit": "ab"}, {"measurement": "contents of urea nitrogen in soil (Urea-N)", "setting": "[5]", "value": "2.9 ± 0.5", "unit": "bc"}, {"measurement": "contents of ammonia nitrogen in soil (NH4^+-N)", "setting": "[6]", "value": "150.8 ± 2.8", "unit": "b"}, {"measurement": "contents of urea nitrogen in soil (Urea-N)", "setting": "[6]", "value": "15.2 ± 0.1", "unit": "c"}, {"measurement": "contents of ammonia nitrogen in soil (NH4^+-N)", "setting": "[7]", "value": "173.7 ± 1.9", "unit": "c"}, {"measurement": "contents of urea nitrogen in soil (Urea-N)", "setting": "[7]", "value": "9.1 ± 0.51", "unit": "b"}, {"measurement": "contents of ammonia nitrogen in soil (NH4^+-N)", "setting": "1,9-decanediol 200 mg/kg in soil + urea, 3 d of culture", "value": "195 ± 9", "unit": "b"}, {"measurement": "contents of ammonia nitrogen in soil (NH4^+-N)", "setting": "[8]", "value": "213.9 ± 3.3", "unit": "ab"}, {"measurement": "contents of urea nitrogen in soil (Urea-N)", "setting": "[8]", "value": "2.8 ± 0.5", "unit": "c"}, {"measurement": "contents of ammonia nitrogen in soil (NH4^+-N)", "setting": "[9]", "value": "221.4 ± 4.4", "unit": "ab"}, {"measurement": "contents of urea nitrogen in soil (Urea-N)", "setting": "[9]", "value": "4.2 ± 1.4", "unit": "ab"}, {"measurement": "contents of ammonia nitrogen in soil (NH4^+-N)", "setting": "[10]", "value": "51 ± 1.1", "unit": "c"}, {"measurement": "contents of urea nitrogen in soil (Urea-N)", "setting": "[10]", "value": "115.6 ± 13", "unit": "b"}, {"measurement": "contents of ammonia nitrogen in soil (NH4^+-N)", "setting": "[11]", "value": "160 ± 6.2", "unit": "mg/kg"}, {"measurement": "contents of urea nitrogen in soil (Urea-N)", "setting": "[11]", "value": "11.7 ± 0.4", "unit": "b"}, {"measurement": "contents of ammonia nitrogen in soil (NH4^+-N)", "setting": "[12]", "value": "180.8 ± 6.3", "unit": "c"}, {"measurement": "contents of urea nitrogen in soil (Urea-N)", "setting": "[12]", "value": "10.5 ± 0.7", "unit": "b"}, {"measurement": "contents of ammonia nitrogen in soil (NH4^+-N)", "setting": "[13]", "value": "207.3 ± 2.1", "unit": "b"}, {"measurement": "contents of urea nitrogen in soil (Urea-N)", "setting": "[13]", "value": "6.1 ± 0.6", "unit": "a"}, {"measurement": "contents of ammonia nitrogen in soil (NH4^+-N)", "setting": "[14]", "value": "217.3 ± 3.3", "unit": "b"}, {"measurement": "contents of urea nitrogen in soil (Urea-N)", "setting": "[14]", "value": "3.4 ± 0.7", "unit": "bc"}, {"measurement": "contents of ammonia nitrogen in soil (NH4^+-N)", "setting": "[15]", "value": "46.3 ± 2.1", "unit": "c"}, {"measurement": "contents of urea nitrogen in soil (Urea-N)", "setting": "[15]", "value": "139 ± 7.2", "unit": "a"}, {"measurement": "contents of ammonia nitrogen in soil (NH4^+-N)", "setting": "[16]", "value": "92.9 ± 0.4", "unit": "e"}, {"measurement": "contents of urea nitrogen in soil (Urea-N)", "setting": "[16]", "value": "73.4 ± 3.8", "unit": "a"}, {"measurement": "contents of ammonia nitrogen in soil (NH4^+-N)", "setting": "[17]", "value": "152 ± 1.4", "unit": "mg/kg"}, {"measurement": "contents of urea nitrogen in soil (Urea-N)", "setting": "[17]", "value": "14.8 ± 1.7", "unit": "a"}, {"measurement": "contents of ammonia nitrogen in soil (NH4^+-N)", "setting": "[18]", "value": "196.7 ± 2", "unit": "c"}, {"measurement": "contents of urea nitrogen in soil (Urea-N)", "setting": "[18]", "value": "5 ± 0.5", "unit": "b"}, {"measurement": "contents of ammonia nitrogen in soil (NH4^+-N)", "setting": "[19]", "value": "203.2 ± 7", "unit": "c"}, {"measurement": "contents of urea nitrogen in soil (Urea-N)", "setting": "[19]", "value": "5.4 ± 0.5", "unit": "a"}, {"measurement": "inhibition of urea hydrolysis during the culture period", "setting": "addition of 500 mg/kg", "value": "can significantly inhibit the urea hydrolysis"}, {"measurement": "inhibition of urea hydrolysis during the culture period", "setting": "addition of 1000 mg/kg", "value": "can significantly inhibit the urea hydrolysis"}, {"measurement": "effect on retarding the hydrolysis efficiency of urea", "value": "can retard the hydrolysis efficiency of urea"}, {"measurement": "efficiencies of retarding urea hydrolysis from large to small", "setting": "ranking of treatments (1,9-D 100-1000 mg/kg, DCD 20 mg/kg soil)", "value": "1, 9-D-1000>1, 9-D-500>1, 9-D-200>1, 9-D-100>DCD"}]}, {"smiles": "N#CN=C(N)N", "note": "[DCD, dicyandiamide, reference compound]", "values": [{"measurement": "contents of ammonia nitrogen in soil (NH4^+-N)", "setting": "[20]", "value": "176.9 ± 5.5", "unit": "a"}, {"measurement": "contents of urea nitrogen in soil (Urea-N)", "setting": "[20]", "value": "4.5 ± 0.4", "unit": "c"}, {"measurement": "contents of ammonia nitrogen in soil (NH4^+-N)", "setting": "[21]", "value": "183.6 ± 4", "unit": "b"}, {"measurement": "contents of urea nitrogen in soil (Urea-N)", "setting": "[21]", "value": "1.6 ± 0.3", "unit": "days"}, {"measurement": "contents of ammonia nitrogen in soil (NH4^+-N)", "setting": "[22]", "value": "203.1 ± 1.6", "unit": "ab"}, {"measurement": "contents of urea nitrogen in soil (Urea-N)", "setting": "[22]", "value": "1.4 ± 0.2", "unit": "e"}, {"measurement": "contents of ammonia nitrogen in soil (NH4^+-N)", "setting": "[23]", "value": "208.4 ± 1.6", "unit": "b"}, {"measurement": "contents of urea nitrogen in soil (Urea-N)", "setting": "[23]", "value": "1.2 ± 0.1", "unit": "days"}, {"measurement": "contents of ammonia nitrogen in soil (NH4^+-N)", "setting": "[24]", "value": "217.9 ± 4.3", "unit": "b"}, {"measurement": "contents of urea nitrogen in soil (Urea-N)", "setting": "[24]", "value": "2.9 ± 0.4", "unit": "bc"}, {"measurement": "effect on retarding the hydrolysis efficiency of urea", "value": "no effect"}]}]}
